From ChEMBL document CHEMBL5131494, “Phe19 modification of HDM2-p53 PPI inhibitors to alleviate CYP3A4 metabolism/mechanism-based inhibition liability” (Bioorg Med Chem Lett, 2022)

How the values were obtained:
[1] = biological target: Tumour suppressor p53/oncoprotein Mdm2 (Homo sapiens, UniProt Q00987); experiment: Inhibition of HDM2-p53 (unknown origin) protein-protein interaction by fluorescence polarization peptide displacement assay
Cytochrome P450 3A4 [2] = biological target: T1, Cytochrome P450 3A4 (Homo sapiens, UniProt P08684); experiment: Inhibition of CYP3A4 (unknown origin) using testosterone as substrate in presence of NADPH; type: ADME
Cytochrome P450 3A4 [3] = biological target: T1, Cytochrome P450 3A4; experiment: Inhibition of CYP3A4 (unknown origin) using testosterone as substrate pretreated with NADPH; type: ADME
CYP3A4 = CYP3A4 (Homo sapiens, UniProt P08684); experiment: Ratio of IC50 for CYP3A4 (unknown origin) co-incubated with NADPH to IC50 for CYP3A4 (unknown origin) pretreated with NADPH; conditions: read-out: Ratio IC50
Chain of CYP3A4 (P08684 whole entry): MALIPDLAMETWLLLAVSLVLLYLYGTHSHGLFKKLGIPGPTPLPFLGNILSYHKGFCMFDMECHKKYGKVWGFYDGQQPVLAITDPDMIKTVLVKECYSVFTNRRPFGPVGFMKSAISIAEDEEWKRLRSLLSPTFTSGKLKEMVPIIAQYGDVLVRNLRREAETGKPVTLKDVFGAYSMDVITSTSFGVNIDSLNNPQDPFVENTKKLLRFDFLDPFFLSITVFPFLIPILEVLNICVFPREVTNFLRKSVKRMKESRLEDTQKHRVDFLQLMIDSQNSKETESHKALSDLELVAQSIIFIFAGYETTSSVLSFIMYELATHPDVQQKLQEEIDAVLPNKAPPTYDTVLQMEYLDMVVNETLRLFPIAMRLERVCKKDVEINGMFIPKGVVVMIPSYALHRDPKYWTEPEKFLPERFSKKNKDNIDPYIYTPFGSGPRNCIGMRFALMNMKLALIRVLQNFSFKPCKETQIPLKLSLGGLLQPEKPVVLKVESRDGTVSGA

T1 sequence (P08684 whole entry): as above
Chain of Tumour suppressor p53/oncoprotein Mdm2 (P04637 whole entry): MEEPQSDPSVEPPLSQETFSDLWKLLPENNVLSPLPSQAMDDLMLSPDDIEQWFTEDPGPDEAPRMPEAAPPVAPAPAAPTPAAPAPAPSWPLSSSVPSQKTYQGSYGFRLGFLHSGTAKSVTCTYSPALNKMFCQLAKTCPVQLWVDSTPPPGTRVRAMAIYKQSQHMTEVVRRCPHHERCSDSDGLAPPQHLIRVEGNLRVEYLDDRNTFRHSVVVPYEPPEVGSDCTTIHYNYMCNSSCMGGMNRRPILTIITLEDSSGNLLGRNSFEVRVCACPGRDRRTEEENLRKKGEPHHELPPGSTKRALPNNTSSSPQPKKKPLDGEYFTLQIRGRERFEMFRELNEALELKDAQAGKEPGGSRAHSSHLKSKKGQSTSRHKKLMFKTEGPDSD
Chain of Tumour suppressor p53/oncoprotein Mdm2 (Q00987 whole entry): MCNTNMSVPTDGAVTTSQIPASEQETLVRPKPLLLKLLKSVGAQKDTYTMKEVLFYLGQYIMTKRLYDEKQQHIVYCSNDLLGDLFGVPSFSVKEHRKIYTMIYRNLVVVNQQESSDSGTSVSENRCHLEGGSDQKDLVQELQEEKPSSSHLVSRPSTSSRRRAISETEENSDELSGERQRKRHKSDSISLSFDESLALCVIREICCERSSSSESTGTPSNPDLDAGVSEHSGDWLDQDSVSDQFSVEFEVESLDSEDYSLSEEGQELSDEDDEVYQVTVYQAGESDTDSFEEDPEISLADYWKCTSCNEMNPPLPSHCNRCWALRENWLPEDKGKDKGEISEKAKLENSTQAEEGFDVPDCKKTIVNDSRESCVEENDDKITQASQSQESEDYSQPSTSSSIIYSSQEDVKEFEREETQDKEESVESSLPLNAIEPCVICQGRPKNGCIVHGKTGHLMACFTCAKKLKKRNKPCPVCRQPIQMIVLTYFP

Row | IC50 [1] [nM] | IC50 (Cytochrome P450 3A4 [2]) [nM] | IC50 (Cytochrome P450 3A4 [3]) [nM] | Compound | IC50 shift (CYP3A4)
1 | 15 | 6600 | 300 | CCC[C@H]1N(C(=O)c2cnccc2C(F)(F)F)CCC[C@@]1(Oc1csc(C(F)(F)F)c1)C(=O)N1CCN(c2ccccc2OCCO)CC1 | –
2 | 25 | 20000 | 4400 | CCC[C@H]1N(C(=O)c2c(C(F)(F)F)ccnc2OCC(=O)O)CCC[C@@]1(Oc1csc(C(F)(F)F)c1)C(=O)N1CCN(c2ccccc2OCCO)CC1 | 5
3 | 32 | 20000 | 9200 | CCC[C@H]1N(C(=O)c2c(C(F)(F)F)ccnc2O)CCC[C@@]1(Oc1csc(C(F)(F)F)c1)C(=O)N1CCN(c2ccccc2OC)CC1 | 2
4 | 34 | 6900 | 1200 | CCC[C@H]1N(C(=O)c2cnccc2C)CCC[C@@]1(Oc1csc(C(F)(F)F)c1)C(=O)N1CCN(c2ccccc2OCCO)CC1 | 6
5 | 1000 | – | – | C=CCNc1nccc(C(F)(F)F)c1C(=O)N1CCC[C@@](Oc2csc(C(F)(F)F)c2)(C(=O)N2CCN(c3ccccc3OCCO)CC2)[C@H]1CCC | –
6 | 22 | 50000 | 1900 | CCC[C@H]1N(C(=O)c2c(C(F)(F)F)ccc[n+]2[O-])CCC[C@@]1(Oc1csc(C(F)(F)F)c1)C(=O)N1CCN(c2ccccc2OCCO)CC1 | 26
7 | 1770 | – | – | CCC[C@H]1N(C(=O)c2cccnc2)CCC[C@@]1(Oc1csc(C(F)(F)F)c1)C(=O)N1CCN(c2ccccc2OCCO)CC1 | –
8 | – | 20000 | 900 | CCC[C@H]1N(C(=O)c2cnccc2C(F)(F)F)CCC[C@@]1(Oc1csc(C(F)(F)F)c1)C(=O)N1CCN(c2ccccc2OCCCC(=O)O)CC1 | 23
9 | 11 | 50000 | 50000 | CCC[C@H]1N(C(=O)c2c(C(F)(F)F)ccnc2O)CCC[C@@]1(Oc1csc(C(F)(F)F)c1)C(=O)N1CCN(c2ccccc2OCCCC(=O)O)CC1 | 1
10 | 44 | 30000 | 30000 | CCC[C@H]1N(C(=O)c2c(C(F)(F)F)ccnc2O)CCC[C@@]1(Oc1csc(C(F)(F)F)c1)C(=O)N1CCN(c2ccccc2OCCO)CC1 | 1
11 | 28 | 50000 | 5700 | C=CCOc1nccc(C(F)(F)F)c1C(=O)N1CCC[C@@](Oc2csc(C(F)(F)F)c2)(C(=O)N2CCN(c3ccccc3OCCO)CC2)[C@H]1CCC | 9
12 | 30 | 10000 | 300 | CCC[C@H]1N(C(=O)c2cnccc2C(F)(F)F)CCC[C@@]1(Oc1csc(C(F)(F)F)c1)C(=O)N1CCN(c2ccccc2OC)CC1 | 33
13 | 65 | 50000 | 400 | CCC[C@H]1N(C(=O)c2c(F)cccc2C(F)(F)F)CCC[C@@]1(Oc1csc(C(F)(F)F)c1)C(=O)N1CCN(c2ccccc2OCCO)CC1 | 126
14 | 246 | – | – | CCC[C@H]1N(C(=O)c2c(C(F)(F)F)ccnc2OCC(=O)NC)CCC[C@@]1(Oc1csc(C(F)(F)F)c1)C(=O)N1CCN(c2ccccc2OCCO)CC1 | –
15 | 117 | – | – | CCC[C@H]1N(C(=O)c2cccnc2C(F)(F)F)CCC[C@@]1(Oc1csc(C(F)(F)F)c1)C(=O)N1CCN(c2ccccc2OCCO)CC1 | –
16 | 66 | – | – | CCC[C@H]1N(C(=O)c2ccncc2C(F)(F)F)CCC[C@@]1(Oc1csc(C(F)(F)F)c1)C(=O)N1CCN(c2ccccc2OCCO)CC1 | –
17 | 6800 | – | – | CCC[C@H]1N(C(=O)c2c(N)cccc2C(F)(F)F)CCC[C@@]1(Oc1csc(C(F)(F)F)c1)C(=O)N1CCN(c2ccccc2OCCO)CC1 | –
18 | 7 | 35100 | 200 | CCC[C@H]1N(C(=O)c2ncccc2C(F)(F)F)CCC[C@@]1(Oc1csc(C(F)(F)F)c1)C(=O)N1CCN(c2ccccc2OCCO)CC1 | 160
19 | 34 | 50000 | 600 | CCC[C@H]1N(C(=O)c2cc(F)ccc2C(F)(F)F)CCC[C@@]1(Oc1csc(C(F)(F)F)c1)C(=O)N1CCN(c2ccccc2OCCO)CC1 | 90
20 | 103 | 50000 | 1500 | CCC[C@H]1N(C(=O)c2c(C(F)(F)F)ccnc2OCCO)CCC[C@@]1(Oc1csc(C(F)(F)F)c1)C(=O)N1CCN(c2ccccc2OCCO)CC1 | 33

Row | Compound | IC50 [1] [nM] | IC50 (Cytochrome P450 3A4 [2]) [nM] | IC50 (Cytochrome P450 3A4 [3]) [nM] | IC50 shift (CYP3A4)
21 | CCC[C@H]1N(C(=O)c2c(C(F)(F)F)ccnc2OCCN(C)C)CCC[C@@]1(Oc1csc(C(F)(F)F)c1)C(=O)N1CCN(c2ccccc2OCCO)CC1 | 10 | 20000 | 2000 | 10
